Values after ≈ are worked out from the molar mass of the structure shown. Read-outs that look alike come from different tables or passages of the source.
What was measured:
Streptococcus pneumoniae = assay: MIC test, multi-resistant Streptococcus pneumoniae; format: cell-based; settings: for MHK values STR (Streptococcus pneumoniae): multi-resistant strain, averages of multiple test runs, log2 dilutions from 250 μg/ml
Experimental: (§1) The activities of the compounds were tested in two different screening systems. The antibacterial and antifungal activities were examined by means of an MIC test, MIC standing for “minimal inhibitory concentration” and referring to the lowest concentration of a substance at which no proliferation of microorganisms can be observed with the naked eye. The MIC is determined by means of a so called titration method in which the substance is diluted and, subsequently, the pathogen is added to it.
(§2) Usually, this method is applied in order to determine the concentration of an antibiotic which only just inhibits the growth of a bacterial strain. The MIC is indicated in micrograms per milliliter (μg/ml), and the dilutions are conventionally carried out in log2 steps. Herein, a starting concentration of 250 μg/ml was diluted several times, to the double volume in each case, resulting in test concentrations of 250 μg/ml, 125 μg/ml, 62.5 μg/ml, 31.2 μg/ml, 15.6 μg/ml, 7.8 μg/ml, etc. Thus, lower values indicate a better activity as an anti-infective.
(§3) The tests were carried out according to the standards of EUCAST (European Committee for Antimicrobial Susceptibility Testing) and according to the AFST-protocol (“Antifungal Susceptibility Testing” protocol) of the European Society of Clinical Microbiology and Infectious Diseases (ESCMID).
(§4) In the following Table 3, the test results indicating the anti-infective action of altersolanol M, alterporriol I and J as well as of some known and structurally similar comparative substances against some multi-resistant bacteria and fungi (all of which were kindly placed at our disposal by Prof Georgopulos from the Medical University of Vienna). The data constituting averages of the values obtained in multiple test runs.

Acinetobacter baumanii = assay: MIC test, multi-resistant Acinetobacter baumanii; format: cell-based; settings: multi-resistant strain; averages of multiple test runs; log2 dilutions from 250 μg/ml
Experimental: as §1, §2, §3, §4

[1] = test system: Enterococcus faecalis or faecium; assay: MIC test, multi-resistant Enterococcus; format: cell-based; settings: multi-resistant strain; averages of multiple test runs; log2 dilutions from 250 μg/ml
Experimental: as §1, §2, §3, §4

[2] = test system: methicillin-resistant Staphylococcus aureus; assay: MIC test, MRSA; format: cell-based; settings: for MIC: Staphylococcus aureus, MRSA, read-out: MHK values MRSA (methicillin-resistant Staphylococcus aureus)
Experimental: as §1, §2, §3, §4

Staphylococcus epidermis = assay: MIC test, multi-resistant Staphylococcus epidermis; format: cell-based; settings: for MIC: Staphylococcus, read-out: MHK values SE (Staphylococcus epidermis)
Experimental: as §1, §2, §3, §4

[3] = test system: Aspergillus fumigatus or faecalis; assay: MIC test (antifungal), Aspergillus; format: cell-based; settings: multi-resistant strain; averages of multiple test runs; log2 dilutions from 250 μg/ml
Experimental: as §1, §2, §3, §4

E. coli = assay: MIC test, multi-resistant E. coli; format: cell-based; settings: multi-resistant strain; averages of multiple test runs; log2 dilutions from 250 μg/ml
Experimental: as §1, §2, §3, §4

[4] = Yagi et al., Phytochemistry 34(4), 1005-1009 (1993); cited from earlier work
Klebsiella sp. = assay: MIC test, multi-resistant Klebsiella sp.; format: cell-based; settings: multi-resistant strain; averages of multiple test runs; log2 dilutions from 250 μg/ml
Experimental: as §1, §2
(§5) The tests were carried out according to the standards of EUCAST (European Committee for Antimicrobial Susceptibility Testing) and according to the AFST-protocol (“Antifungal Susceptibility Testing” protocol) of the European Society of Clinical Microbiology and Infectious Diseases (ESCMID). […]

bacteria and fungi = settings: Aly et al., Phytochemistry 69, 1716-1725; cited from earlier work
[5] = test system: Staphylococcus aureus or methicillin-resistant Staphylococcus aureus; settings: Xu et al. 2008; Sommart et al. 2008; cited from earlier work
Pseudomonas aeruginosa = assay: MIC test, multi-resistant Pseudomonas aeruginosa; format: cell-based; settings: multi-resistant strain; averages of multiple test runs; log2 dilutions from 250 μg/ml
Experimental: as §1, §2, §5

[6] = multi-resistant strain, averages of multiple test runs, log2 dilutions from 250 μg/ml
[7] = verbal summary of the MIC test series

## Macrosporin sulfate
Streptococcus pneumoniae
  MHK values STR (Streptococcus pneumoniae): 31.2 µg/mL
Acinetobacter baumanii
  MHK values AB (Acinetobacter baumanii): 125 µg/mL

## COc1cc2c(c(O)c1-c1c(OC)cc(O)c3c1C(=O)C1=C(C3=O)[C@H](O)[C@@H](O)[C@@](C)(O)[C@H]1O)C(=O)c1cc(O)c(C)cc1C2=O [Example 4, 8-(1,7-dihydroxy-6-methyl-3-methoxy-9,10-dioxo-9H,10H-anthracen-2-yl)-(1S,2S,3R,4S)-1,2,3,4,5-pentahydroxy-7-methoxy-2-methyl-1,2,3,4-tetrahydro-9H,10H-anthracen-9,10-dione]
[1]
  MHK values EK (Enterococcus faecalis or faecium): 7.8 µg/mL
[2]
  MIC: 7.8 µg/mL (≈ 12.6 µM)
Streptococcus pneumoniae
  MHK values STR (Streptococcus pneumoniae): 7.8 µg/mL
Staphylococcus epidermis; [6]
  MIC: 7.8 µg/mL (≈ 12.6 µM)
[3]
  MHK values ASP (Aspergillus fumigatus or faecalis): 125 µg/mL

## COc1cc(O)c2c(c1)C(=O)[C@@H]1[C@H](C[C@@H](O)[C@@](C)(O)[C@@H]1O)[C@H]2O [Example 2, (1R,2R,3R,4aS,9aR,10R)-1,2,3,5,10-pentahydroxy-7-methoxy-2-methyl-1,2,3,4,4a,9a-hexahydro-9H,10H-anthracen-9-one]
[1]
  MHK values EK (Enterococcus faecalis or faecium): 31.2 µg/mL
[2]; [6]
  MIC: 31.2 µg/mL (≈ 96.2 µM)
Streptococcus pneumoniae
  MHK values STR (Streptococcus pneumoniae): 31.2 µg/mL
Staphylococcus epidermis; [6]
  MIC: 31.2 µg/mL (≈ 96.2 µM)
[3]
  MHK values ASP (Aspergillus fumigatus or faecalis): 62.5 µg/mL

## COc1cc(O)c2c(c1)C(=O)c1cc(C)c(O)cc1C2=O [Macrosporin]
E. coli
  MHK values EC (E. coli): 62.5 µg/mL
[2]; [6]
  MIC: 62.5 µg/mL (≈ 220 µM)
Staphylococcus epidermis; [6]
  MIC: 62.5 µg/mL (≈ 220 µM)
Acinetobacter baumanii
  MHK values AB (Acinetobacter baumanii): 125 µg/mL

## Alterporriol A + B
[1]
  MHK values EK (Enterococcus faecalis or faecium): 15.6 µg/mL
[2]; [6]
  MHK values MRSA (methicillin-resistant Staphylococcus aureus): 15.6 µg/mL
Streptococcus pneumoniae
  MHK values STR (Streptococcus pneumoniae): 7.8 µg/mL
Staphylococcus epidermis; [6]
  MHK values SE (Staphylococcus epidermis): 15.6 µg/mL
Acinetobacter baumanii
  MHK values AB (Acinetobacter baumanii): 125 µg/mL
[3]
  MHK values ASP (Aspergillus fumigatus or faecalis): 62.5 µg/mL

## altersolanol D
[4]
  anti-microbial activity: completely ineffective

## COc1cc(O)c2c(c1)C(=O)[C@H]1C[C@](C)(O)[C@H](O)C[C@@H]1[C@H]2O [Altersolanol J]
Klebsiella sp.
  MHK values KL (Klebsiella sp.): 125 µg/mL
[1]
  MHK values EK (Enterococcus faecalis or faecium): 31.2 µg/mL
[2]; [6]
  MHK values MRSA (methicillin-resistant Staphylococcus aureus): 62.5 µg/mL
Streptococcus pneumoniae
  MHK values STR (Streptococcus pneumoniae): 15.6 µg/mL
Staphylococcus epidermis; [6]
  MHK values SE (Staphylococcus epidermis): 62.5 µg/mL
Acinetobacter baumanii
  MHK values AB (Acinetobacter baumanii): 125 µg/mL
[3]
  MHK values ASP (Aspergillus fumigatus or faecalis): 125 µg/mL
Bacteria and fungi
  activity against bacteria and fungi: do not show any activity

## COC1=CC(=O)c2c(O)c3c(c(O)c2C1=O)C[C@](C)(O)[C@H](O)[C@H]3O [Bostrycin]
[2]; [6]
  MIC: 125 µg/mL (≈ 372 µM)
Streptococcus pneumoniae
  MHK values STR (Streptococcus pneumoniae): 62.5 µg/mL
Staphylococcus epidermis; [6]
  MIC: 125 µg/mL (≈ 372 µM)
Acinetobacter baumanii
  MHK values AB (Acinetobacter baumanii): 125 µg/mL

## COc1cc(O)c2c(c1)[C@H](O)[C@@H]1[C@H](C[C@@H](O)[C@@](C)(O)[C@@H]1O)C2=O [Example 3, (2R,3R,4R,4aS,9aS,10R)-2,3,4,8,10-pentahydroxy-6-methoxy-3-methyl-1,2,3,4,4a,9a-hexahydro-9H,10H-anthracen-9-one]
[1]
  MHK values EK (Enterococcus faecalis or faecium): 7.8 µg/mL
[2]; [6]
  MIC: 7.8 µg/mL (≈ 24 µM)
Streptococcus pneumoniae
  MHK values STR (Streptococcus pneumoniae): 7.8 µg/mL
Staphylococcus epidermis; [6]
  MIC: 7.8 µg/mL (≈ 24 µM)
Acinetobacter baumanii
  MHK values AB (Acinetobacter baumanii): 7.8 µg/mL
[3]
  MHK values ASP (Aspergillus fumigatus or faecalis): 31.2 µg/mL

## COc1cc(O)c2c(c1)[C@H](O)[C@@H]1[C@@H](C2=O)[C@H](O)[C@@H](O)[C@@](C)(O)[C@@H]1O [Ampelanol]
Bacteria and fungi
  activity against bacteria and fungi: do not show any activity

## COc1cc(O)c2c(c1O)[C@H](O)[C@H]1C[C@](C)(O)[C@H](O)C[C@@H]1C2=O [Example 5, (2R,3S,4aS,9aS,10R)-2,3,5,8,10-penta-hydroxy-6-methoxy-3-methyl-1,2,3,4,4a,9a-hexahydro-9H,10H-anthracen-9-one]
[1]
  MHK values EK (Enterococcus faecalis or faecium): 125 µg/mL
[2]; [6]
  MIC: 15.6 µg/mL (≈ 48.1 µM)
[2]; [7]
  activity against methicillin-resistant Staphylococcus aureus, in words: very good activity
Streptococcus pneumoniae
  MHK values STR (Streptococcus pneumoniae): 7.8 µg/mL
Streptococcus pneumoniae; [7]
  activity against Streptococcus pneumoniae, in words: excellent effectiveness
Staphylococcus epidermis; [6]
  MIC: 15.6 µg/mL (≈ 48.1 µM)
[3]
  MHK values ASP (Aspergillus fumigatus or faecalis): 31.2 µg/mL
[5]
  effectiveness against Staphylococcus aureus or methicillin-resistant Staphylococcus aureus: slight effectiveness

## alterporriols D and E
Bacteria and fungi
  activity against bacteria and fungi: do not show any activity

## COc1cc(O)c2c(c1)C(=O)C1=C(C2=O)[C@H](O)[C@@H](O)[C@@](C)(O)[C@@H]1O [Altersolanol A, 7-methoxy-2-methyl-(1R,2S,3R,4S)-1,2,3,4-tetrahydro-1,2,3,4,5-pentahydroxy-anthracene-9,10-dione]
E. coli
  MHK values EC (E. coli): 62.5 µg/mL
[1]
  MHK values EK (Enterococcus faecalis or faecium): 15.6 µg/mL
[2]
  MIC: 7.8 µg/mL (≈ 23.2 µM)
Streptococcus pneumoniae
  MHK values STR (Streptococcus pneumoniae): 7.8 µg/mL
Staphylococcus epidermis; [6]
  MIC: 7.8 µg/mL (≈ 23.2 µM)
Acinetobacter baumanii
  MHK values AB (Acinetobacter baumanii): 62.5 µg/mL
[3]
  MHK values ASP (Aspergillus fumigatus or faecalis): 7.8 µg/mL
Bacteria and fungi
  activity against bacteria and fungi: most efficient of the tested substances
[4]
  anti-microbial activity: anti-microbial activity

## altersolanol F
[4]
  anti-microbial activity: completely ineffective

## COc1cc(O)c(C(=O)O)c(-c2cc(O)c(O)cc2C)c1 [Altenusin]
E. coli
  MHK values EC (E. coli): 62.5 µg/mL
[1]
  MHK values EK (Enterococcus faecalis or faecium): 62.5 µg/mL
[2]
  MIC: 31.2 µg/mL (≈ 107 µM)
Streptococcus pneumoniae
  MHK values STR (Streptococcus pneumoniae): 31.2 µg/mL
Staphylococcus epidermis
  MIC: 31.2 µg/mL (≈ 107 µM)
Acinetobacter baumanii
  MHK values AB (Acinetobacter baumanii): 62.5 µg/mL

## COc1cc(O)c2c(c1)C(=O)C1=C(C[C@@H](O)[C@@](C)(O)[C@@H]1O)C2=O [altersolanol C]
[4]
  anti-microbial activity: anti-microbial activity

## COc1cc(O)c2c(c1)C(=O)C1=C(C[C@@H](O)[C@@](C)(O)C1)C2=O [altersolanol B]
[4]
  anti-microbial activity: anti-microbial activity

## Indole carbaldehyde (carboxaldehyde)
Pseudomonas aeruginosa
  MHK values PS (Pseudomonas aeruginosa): 125 µg/mL
Streptococcus pneumoniae
  MHK values STR (Streptococcus pneumoniae): 62.5 µg/mL
Acinetobacter baumanii
  MHK values AB (Acinetobacter baumanii): 125 µg/mL

Reference: patent US20120129949A1, “Use of Anthracene Derivatives as Anti-Infectives” (SEALIFE PHARMA GMBH, priority 2009, published 2012)
